The IC50 is the midpoint of a concentration-inhibition curve. A low value points to inhibition by little substance.

In this test the target is human FATP2 (Homo sapiens, UniProt O14975). The test is described as follows: BODIPY-FA uptake in FATP2-overexpressing HPCT cells, fluorescence plate reader. The format is cell-based.
Chain of human FATP2 (O14975 whole entry): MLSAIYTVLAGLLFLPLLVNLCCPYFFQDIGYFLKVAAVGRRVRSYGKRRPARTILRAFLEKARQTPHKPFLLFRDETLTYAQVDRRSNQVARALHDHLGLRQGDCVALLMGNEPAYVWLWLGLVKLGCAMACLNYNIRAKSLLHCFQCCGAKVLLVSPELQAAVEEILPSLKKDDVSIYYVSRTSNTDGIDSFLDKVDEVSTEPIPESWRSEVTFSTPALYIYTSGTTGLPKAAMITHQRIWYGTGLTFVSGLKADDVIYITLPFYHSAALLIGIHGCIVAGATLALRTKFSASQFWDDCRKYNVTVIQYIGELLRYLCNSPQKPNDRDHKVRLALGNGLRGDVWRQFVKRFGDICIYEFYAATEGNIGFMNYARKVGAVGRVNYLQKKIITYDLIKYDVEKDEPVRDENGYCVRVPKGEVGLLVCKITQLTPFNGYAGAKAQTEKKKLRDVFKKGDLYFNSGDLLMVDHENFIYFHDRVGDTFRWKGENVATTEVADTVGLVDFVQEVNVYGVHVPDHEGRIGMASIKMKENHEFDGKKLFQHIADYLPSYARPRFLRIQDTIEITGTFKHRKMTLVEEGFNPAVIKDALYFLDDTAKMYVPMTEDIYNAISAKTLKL

Turning to `O=C1Nc2ccc(Br)cc2C12NN=C(c1ccccc1)S2` (stereo not shown) [Lipofermata], the 50% inhibitory concentration (IC50) is 5 µM.

(Values after PMC12486159 (American journal of physiology. Renal physiology, 2025).)
